Results as given in patent EP0643971A2, “Antifungal compositions consisting of an antifungal agent, e.g. antibiotic R-106I, and a fungal MDR inhibitor” (priority 1993, dated 1995).

Test system: Penicillium chrysogenum
Assay: Potentiation of hygromycin B toxicity by trifluoroperazine, growth of regenerating protoplasts on agar
Type: cell-based
Set-up: key to Growth: +: growth of the Penicillium chrysogenum cells, and therefore, that the toxic effect of hygromycin B was not potentiated by TFP; -: no growth of the Penicillium chrysogenum culture, and therefore, that the toxic effect of hygromycin B was potentiated by trifluoroperazine
Conditions: for Growth: 28°C, 48 hours
Excerpt: Protoplasts of Penicillium chrysogenum (Eli Lilly and Co.) were formed with Novozyme 234 in substantial accordance with the procedure described for Cephalosporium acremonium by Queener et al., 1985 Microbiology 1985, American Society for Microbiology, pp 468-472, and by Skatrud et al., 1987, Current Genetics, 12:337-348. During formation of the P. chrysogenum, protoplasts and subsequent cell wall regeneration, sucrose was used as an osmotic stabilizer rather than sodium chloride as described in the above references. Petri plates were prepared that contained an agar layer consisting of: yeast nitrogen base without amino acids and ammonium sulfate (1.7 g/L) (Difco Laboratories, Detroit, MI); ammonium sulfate (5 g/L); and sucrose (125 g/L); trifluoroperazine (final concentration […]; Sigma Chemical Co. Catalog #T-8516); and cadmium chloride (final concentration 3 mM/ml). Approximately 3 X 10⁷ Penicillium chrysogenum protoplasts were delivered to the surface of the solidified agar in a 4 ml soft agar overlay consisting of the following ingredients: yeast nitrogen base without amino acids and ammonium sulfate (1.7 g/L) (Difco Laboratories, Detroit, MI); ammonium sulfate (5 g/L); sucrose (125 g/L); and agar (4 g/L). The plates were incubated overnight at 15°C.
The next morning hygromycin B (final concentration […]; Boehringer Mannheim Catalog #843 555) was added to the plates in a 4 ml soft agar overlay consisting of yeast nitrogen base without amino acids and ammonium sulfate (1.7 g/L) (Difco Laboratories, Detroit, MI); ammonium sulfate (5 g/L); sucrose (125 g/L); and agar (4 g/L). The plates were incubated at 28°C for 48 hours.
In Table 2, a result of "+" indicates growth of the Penicillium chrysogenum cells, and therefore, that the toxic effect of hygromycin B was not potentiated by TFP. A result of "-" indicates no growth of the Penicillium chrysogenum culture, and therefore, that the toxic effect of hygromycin B was potentiated by trifluoroperazine.

Compound	Growth (Hygromycin B 0.250 mg/ml, TFP 250 µM)	Growth (Hygromycin B 1 mg/ml, TFP 500 µM)	Growth (Hygromycin B 2 mg/ml, TFP 500 µM)	Growth (Hygromycin B 3 mg/ml, TFP 500 µM)	Growth (Hygromycin B 4 mg/ml, TFP 500 µM)	Growth (Hygromycin B 5 mg/ml, TFP 0 µM)	Growth (Hygromycin B 5 mg/ml, TFP 500 µM)	Growth (Hygromycin B 0 mg/ml, TFP 500 µM)	toxic effect of hygromycin B on Penicillium chrysogenum (in the presence of triflouroperazine, summary of Table 2)
CN[C@H]1C[C@@H](N)[C@H](O)[C@@H](O[C@@H]2O[C@H](CO)[C@H](O)[C@@H]3OC4(O[C@H]23)O[C@H]([C@@H](N)CO)[C@H](O)[C@H](O)[C@H]4O)[C@@H]1O (stereo partly drawn) [Hygromycin B, hygromycin B]	-	-	-	-	-	+	-		
CN1CCN(CCCN2c3ccccc3Sc3ccc(C(F)(F)F)cc32)CC1 [TFP, trifluoroperazine]								+	potentiated
